In US7232659B1, “Multiplex analysis for high throughput discrimination of GPCR agonists and antagonists” (STC.UNM, priority 2003, dated 2007):
Residues, ends and D or L forms follow the SMILES beside them. *: point of attachment. For = O=C*

How the values were obtained:
[1] = target: T1, β2AR-GFP with Gαsβ1γ2 on Ni beads (Homo sapiens, UniProt P07550); assay: ARG assembly assay on G protein coated beads, flow cytometry; type: biochemical; settings: for slope of GFP/bead versus β2AR-GFP concentration: dobutamine relative to salbutamol
T1 construct: expressed in transfected cells; host or cells: receptor fusion: U937 cells, solubilized membranes
Method: ARG Assembly Assay on G Protein Coated Beads—Coating of the Ni beads with heterotrimeric G proteins has been described before in detail (10). Briefly, 25 pmol of the desired α subunit and 25 pmol of hexahistidine-tagged β1γ2 were mixed with 2.5 μl of a 50% slurry of DCNi beads (2.5×10^5 beads/μl) and 190 μl of HPSM containing 0.1% dodecyl maltoside and 1 mM dithiothreitol, then kept in suspension by rocking at 4–7° C. for one hour. The beads were then centrifuged for 30 seconds at 1,500×gmax, the supernatant was removed, and the beads were resuspended in 50 μl of the buffer. This provided 25 aliquots of 24,000 G protein coated beads, for 25 ARG assembly assays (some beads were lost to surfaces). A ten microliter ARG assembly assay generally consisted of two microliters of solubilized receptor preparation, two microliters of desired ligand, four microliters of HPSM containing 0.1% dodecyl maltoside, and two microliters of G protein coated beads. Nonspecific fluorescence was defined in the presence of 0.1 mM GTPγS. These suspensions were mixed on an orbital mixer for 2 hours, brought to 200 μl with HPSM containing 0.1% dodecyl maltoside, transferred to a 12×75 mm tube, and immediately analyzed by flow cytometry for bead fluorescence. For kinetic data, tubes were removed from the cytometer after twenty seconds, 2 μl of 10^−2 M GTPγS was added and mixed, and the tubes were returned to the cytometer for measurement of the bead fluorescence. The cytometer data were converted to alphanumeric form and binned into one second intervals using the FACSQuery program (available free from Bruce Edwards), which provides a series of mean channel fluorescence (MCF) values in an Excel file.

[2] = target: T2, FPR-GFP (R^F) with Gαi3β1H6γ2 on DCNi beads (Homo sapiens, UniProt P21462); assay: Standard LRG assembly assay with FPR-GFP on G protein beads, flow cytometry; type: biochemical
T2 construct: host or cells: receptor fusion: transfected cells (U937 named for FPR), solubilized membranes; β1H6γ2: Sf9 insect cells
Method: Standard LRG Assembly Assay. […] Each mixture was mixed by pipetting to ensure a uniform starting suspension of the beads in 96 V-well plates (Costar), and then mixed at low speed on a vortex mixer at 7° for two hours. The 10 μl assays were individually brought to 200 μl with 0.1% dodecyl maltoside in buffer A in 12×75 mm tubes for flow cytometric measurement of fluorescence of the beads. LRG assembly was defined as the difference between fluorescence without GTPγS and that with GTPγS. All determinations were done in duplicate.

β2AR in membranes = settings: membrane binding assays (3); cited from earlier work
[3] = system: adenylyl cyclase activity via β2AR in membranes; settings: membranes (3); cited from earlier work

T1 sequence (P62873 2-340): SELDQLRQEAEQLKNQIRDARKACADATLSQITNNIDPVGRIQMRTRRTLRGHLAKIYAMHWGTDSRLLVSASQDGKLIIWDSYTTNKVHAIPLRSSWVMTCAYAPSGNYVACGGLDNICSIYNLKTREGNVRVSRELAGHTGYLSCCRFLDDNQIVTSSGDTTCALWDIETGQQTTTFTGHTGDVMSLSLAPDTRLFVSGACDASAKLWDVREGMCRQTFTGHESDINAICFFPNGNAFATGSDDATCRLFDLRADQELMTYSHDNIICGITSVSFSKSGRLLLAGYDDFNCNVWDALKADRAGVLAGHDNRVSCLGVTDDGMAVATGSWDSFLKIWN
T1 sequence (P07550 whole entry, the tested form may be a part): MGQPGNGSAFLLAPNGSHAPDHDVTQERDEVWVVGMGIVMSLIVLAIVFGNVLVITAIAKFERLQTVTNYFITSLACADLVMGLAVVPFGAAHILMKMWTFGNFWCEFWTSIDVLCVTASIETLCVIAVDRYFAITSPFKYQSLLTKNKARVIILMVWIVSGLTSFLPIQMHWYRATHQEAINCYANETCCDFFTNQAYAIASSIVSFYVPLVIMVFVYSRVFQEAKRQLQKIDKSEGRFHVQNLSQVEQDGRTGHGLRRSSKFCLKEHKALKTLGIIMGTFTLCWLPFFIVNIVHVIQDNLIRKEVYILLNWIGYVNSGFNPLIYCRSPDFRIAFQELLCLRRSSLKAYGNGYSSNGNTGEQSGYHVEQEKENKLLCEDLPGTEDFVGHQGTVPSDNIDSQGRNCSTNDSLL
T1 sequence (P59768 2-68, further chain): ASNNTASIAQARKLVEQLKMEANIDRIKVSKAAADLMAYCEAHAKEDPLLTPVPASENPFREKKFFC
T1 sequence (P63092 other isoform, or with tags, fused parts or gaps, further chain): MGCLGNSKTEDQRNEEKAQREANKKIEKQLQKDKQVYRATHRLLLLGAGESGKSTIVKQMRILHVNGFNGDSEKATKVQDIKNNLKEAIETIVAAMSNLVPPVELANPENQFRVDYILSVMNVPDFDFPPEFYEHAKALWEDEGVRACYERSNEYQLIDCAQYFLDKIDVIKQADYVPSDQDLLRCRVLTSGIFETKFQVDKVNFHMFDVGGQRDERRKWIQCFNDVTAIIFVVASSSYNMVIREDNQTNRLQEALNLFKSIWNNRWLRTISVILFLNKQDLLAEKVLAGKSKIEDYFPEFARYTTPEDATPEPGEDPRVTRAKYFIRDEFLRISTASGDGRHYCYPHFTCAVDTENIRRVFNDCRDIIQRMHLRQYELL
T2 sequence (P21462 whole entry, the tested form may be a part): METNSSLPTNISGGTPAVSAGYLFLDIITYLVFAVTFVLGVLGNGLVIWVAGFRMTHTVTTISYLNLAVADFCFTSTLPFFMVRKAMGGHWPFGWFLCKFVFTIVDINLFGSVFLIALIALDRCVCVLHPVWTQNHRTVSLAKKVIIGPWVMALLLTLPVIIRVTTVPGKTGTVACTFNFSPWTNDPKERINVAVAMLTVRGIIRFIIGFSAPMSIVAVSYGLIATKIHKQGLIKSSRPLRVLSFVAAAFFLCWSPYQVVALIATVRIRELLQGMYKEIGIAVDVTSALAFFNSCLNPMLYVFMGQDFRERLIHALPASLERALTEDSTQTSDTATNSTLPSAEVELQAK
T2 sequence (P08754 2-354 partner limits assumed): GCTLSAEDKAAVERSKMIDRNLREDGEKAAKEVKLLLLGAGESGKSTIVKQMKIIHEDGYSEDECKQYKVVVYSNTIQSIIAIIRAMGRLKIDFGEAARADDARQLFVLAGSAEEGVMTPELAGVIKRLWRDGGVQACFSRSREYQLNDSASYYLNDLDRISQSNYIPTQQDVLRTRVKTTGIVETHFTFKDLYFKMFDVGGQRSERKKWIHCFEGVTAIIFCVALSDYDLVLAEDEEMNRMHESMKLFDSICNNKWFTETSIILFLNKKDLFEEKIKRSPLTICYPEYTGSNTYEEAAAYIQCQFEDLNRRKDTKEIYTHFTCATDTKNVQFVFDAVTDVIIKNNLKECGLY
T2 sequence (P62873 2-340 partner limits assumed): as the sequence (P62873 2-340) above
T2 sequence (P59768 2-68 partner limits assumed): as the sequence (P59768 2-68, further chain) above

Structure (SMILES) | slope of GFP/bead versus β2AR-GFP concentration ([1]; saturating agonist) | percent ARG form (β2AR in membranes) [%] | efficacy (adenylyl cyclase activity compared to isoproterenol) [3] [%] | further results
CNC[C@H](O)c1ccc(O)c(O)c1 [epinephrine] | indistinguishable from isoproterenol | – | – | –
NC[C@H](O)c1ccc(O)c(O)c1 [norepinephrine] | indistinguishable from isoproterenol | – | – | –
CSCC[C@H](NC=O)C(=O)N[C@@H](CC(C)C)C(=O)N[C@@H](Cc1ccccc1)C(=O)N[C@@H](Cc1ccccc1)C(=O)O [fMLFF] (For-MLFF-OH) | – | – | – | EC50 [2]: 27 nM; ratio of Kd (for LR) to EC50 (for LRG formation) [2]: 2.8
Nc1nc2c(ncn2[C@@H]2O[C@H](COP(=O)(O)OP(=O)(O)OP(O)(O)=S)[C@@H](O)[C@H]2O)c(=O)[nH]1 [GTPγS, guanosine 5′-3-O-(thio)triphosphate] | – | – | – | fluorescence on G protein beads with GTPγS added ([1]; 40 nM β2AR-GFP, 1 mM isoproterenol, 0.1 mM GTPγS): about 10,000 β2AR-GFP/bead
CC(Cc1ccc(O)cc1)NCC(O)c1ccc(O)c(O)c1 (stereo not shown) [hydroxybenzylisoproterenol] | – | 93 | 110 | –
CC(C)NCC(O)c1ccc(O)c(NS(C)(=O)=O)c1 (stereo not shown) [soterenol] | – | 58 | 8 | –
CC(CCc1ccc(O)cc1)NCCc1ccc(O)c(O)c1 (stereo not shown) [dobutamine] | ⅔ | – | – | rate of ternary complex disassembly after GTPγS ([1]; 0.1 mM GTPγS): 0.09 s⁻¹; maximal ARG/bead level relative to the full agonist isoproterenol ([1]; dose-response, 20 nM β2AR-GFP): ten; time course of ARG assembly ([1]; saturating agonist, 40 nM β2AR-GFP): ≤ 1 h
CC(C)(C)NCC(O)c1ccc(O)c(CO)c1 (stereo not shown) [salbutamol] | – | – | 20 | –
CC(C)NCC(O)c1ccc(O)c(O)c1 (stereo not shown) [isoproterenol] | – | 80 | 100 | –
